Results taken from patent US6716605B2, “Indole derivatives having an antiviral activity” (Shionogi & Co., Ltd., priority 1998, dated 2004).

Molecular target: HIV-1 integrase (Human immunodeficiency virus type 1 group M subtype B, UniProt P04585)
Assay: HIV-1 integrase inhibition assay (microtiter plate, substrate DNA/target DNA, OD 405 nm)
Type: biochemical
Description: The DNA solutions were annealed with each complement by slowly cooling after heating.
After coating each well of microtiter plates (obtained from NUNC) with 50 μl of the above solution at 4° C. overnight, each well was washed twice with PBS (composition: […], 0.27 mM KCl, 0.43 mM Na2HPO4, 0.14 mM KH2PO4) and blocked with 300 μl of 1% skim milk in PBS for 30 min. Additionally, each well was washed twice with PBS and added 50 μl of substrate DNA solution (2 pmol/μl). The microtiter plates were kept at room temperature for 30 min. Then, each well was washed twice with PBS and once with H2O.
The microtiter plates were incubated at 30° C. for 1 hour. […] Then, each well was washed twice with 0.05% Tween20 in PBS and once with PBS. […] The optical density (OD) at 405 nm of each well was measured and the percent inhibition was determined by the following expression.

Q: With O=C(C=C(O)c1nn[nH]n1)c1cn(Cc2ccccc2)c2ccc(Cl)cc12 [Example 81] as the compound, how does the IC50 read?
A: 9.48 µM

Q: With O=C(C=C(O)c1nc[nH]n1)c1c[nH]c2ccc(Cl)cc12 [Example 71] as the compound, how does the IC50 read?
A: 5.16 µM

Q: Which IC50 does the source give for O=C(C=C(O)c1nn[nH]n1)c1cn(S(=O)(=O)c2cccs2)c2ccc(Cl)cc12 [Example 80] here?
A: 7.57 µM

Q: With O=C(O)C(O)=CC(=O)c1cn(S(=O)(=O)c2ccccc2)c2ccc(Cl)cc12 [Example 23(2), 4-(1-Benzenesulfonyl-5-chloroindol-3-yl)-2-hydroxy-4-oxo-2butenoic acid] as the compound, how does the IC50 read?
A: 0.32 µM

System: not given
Assay: not given

Q: Which melting point does the source give for COC(=O)/C(O)=C/C(=O)c1c(Cc2ccc(F)cc2)[nH]c2ccc(Cl)cc12 here?
A: 235 to 238 °C

Q: Which melting point does the source give for O=C(O)c1cccc(C(O)=CC(=O)c2cn(S(=O)(=O)c3ccccc3)c3ccc(Cl)cc23)c1 here?
A: 245 to 255 °C (dec.)

Q: For O=C(/C=C(\O)c1ncc[nH]1)c1c[nH]c2ccc(Cl)cc12, which melting point is on record?
A: 272 to 276 °C

Q: Which melting point does the source give for O=C(C=C(O)c1nn[nH]n1)c1cn(Cc2ccccc2)c2ccc(Cl)cc12 [Example 81] here?
A: > 240 °C

Q: Which melting point does the source give for O=C(O)c1cccc(C(O)=CC(=O)c2c[nH]c3ccc(Cl)cc23)c1 here?
A: > 270 °C (dec.)

Q: Which melting point does the source give for O=C(OC(c1ccccc1)c1ccccc1)C(O)=CC(=O)c1cn(C(=O)c2ccc(F)cc2)c2ccc(Cl)cc12 here?
A: 198 to 200 °C

Q: With O=C(/C=C(\O)c1nc[nH]n1)c1cn(Cc2ccc(F)cc2)c2cc(Cl)ccc12 as the compound, how does the melting point read?
A: 260 to 263 °C

Q: Which melting point does the source give for CCOCCNC(=CC(=O)c1cn(Cc2ccccc2)c2ccc(Cl)cc12)C(=O)O here?
A: 184 to 186 °C (dec.)

Q: With COc1ccccc1Cc1[nH]c2ccc(Cl)cc2c1C(=O)/C=C(\O)c1nn[nH]n1 as the compound, how does the melting point read?
A: 245 °C (dec.)

Q: Which melting point does the source give for CNC(=CC(=O)c1cn(Cc2ccccc2)c2ccc(Cl)cc12)C(=O)O here?
A: 205 to 210 °C (dec.)

Q: Which melting point does the source give for O=C(C=C(O)c1nc[nH]n1)c1c[nH]c2ccc(Cl)cc12 [Example 71] here?
A: 277 to 279 °C

Q: Which melting point does the source give for CCOC(=O)C(N)=CC(=O)c1c[nH]c2ccccc12 here?
A: 200 to 205 °C

Q: With O=C(/C=C(\O)c1nn[nH]n1)c1cn(Cc2ccccc2)c2c(Cl)cccc12 as the compound, how does the melting point read?
A: 252 °C (dec.)

Q: For O=C(O)/C(O)=C/C(=O)c1cn(Cc2ccc(C(=O)O)cc2)c2ccc(Cl)cc12, which melting point is on record?
A: 245 °C (dec.)

Q: For O=C(/C=C(\O)c1nc[nH]n1)c1cn(S(=O)(=O)c2cc(Cl)ccc2Cl)c2ccc(Cl)cc12, which melting point is on record?
A: 301 to 302 °C

Q: For O=C(/C=C(\O)c1nn[nH]n1)c1c([S+]([O-])c2cc(Cl)cc(Cl)c2)[nH]c2ccc(Cl)cc12 (stereo not shown), which melting point is on record?
A: 200 to 204 °C (dec.)

Q: Which melting point does the source give for O=C(C=C(O)c1nn[nH]n1)c1cn(S(=O)(=O)c2cccs2)c2ccc(Cl)cc12 [Example 80] here?
A: 243 °C

Q: Which melting point does the source give for CCOC(=O)C(=CC(=O)c1cn(Cc2ccccc2)c2ccc(Cl)cc12)NC here?
A: 131 to 132 °C

Q: With O=C(/C=C(\O)c1nc[nH]n1)c1cn(S(=O)(=O)c2ccc(F)cc2)c2cc(Cl)ccc12 as the compound, how does the melting point read?
A: 293 to 298 °C (dec.)

Q: With O=C(/C=C(\O)c1nccs1)c1c[nH]c2ccc(Cl)cc12 as the compound, how does the melting point read?
A: 226 to 227 °C

Q: Which melting point does the source give for O=C(/C=C(\O)c1nccs1)c1cn(S(=O)(=O)c2ccccc2)c2ccc(Cl)cc12 here?
A: 191 to 194 °C

Q: For O=C(O)C(O)=CC(=O)c1cn(C(=O)c2ccc(F)cc2)c2ccc(Cl)cc12, which melting point is on record?
A: 213 to 218 °C

Q: With COc1ccccc1Cn1cc(C(=O)/C=C(\O)c2nn[nH]n2)c2cc(Cl)ccc21 as the compound, how does the melting point read?
A: 256 °C (dec.)

Q: With O=C(/C=C(\O)c1nn[nH]n1)c1c(CCCc2ccc(F)cc2)[nH]c2ccc(Cl)cc12 as the compound, how does the melting point read?
A: 181 to 182 °C (dec.)

Q: Which melting point does the source give for O=C(/C=C(\O)c1nc[nH]n1)c1cn(Cc2ccc(F)cc2)c2ccc(Br)cc12 here?
A: 265 to 268 °C

Q: With O=C(/C=C(\O)c1nc[nH]n1)c1cn(S(=O)(=O)c2ccccc2)c2cc(Cl)ccc12 as the compound, how does the melting point read?
A: 265 to 270 °C

Q: Which melting point does the source give for O=C(/C=C(\O)c1nc[nH]n1)c1cn(S(=O)(=O)c2ccc(F)cc2)c2ccc(Br)cc12 here?
A: 266 to 270 °C

Q: With O=C(/C=C(\O)c1nc[nH]n1)c1cn(Cc2ccccc2)c2ccc(Cl)cc12 as the compound, how does the melting point read?
A: 264 to 265 °C

Q: With CCOCCNC(=CC(=O)c1cn(Cc2ccccc2)c2ccc(Cl)cc12)C(=O)OCC as the compound, how does the melting point read?
A: 73 to 74 °C

Q: With O=C(/C=C(\O)c1nc[nH]n1)c1cn(S(=O)(=O)c2ccccc2)c2ccc(Br)cc12 as the compound, how does the melting point read?
A: 290 to 295 °C (dec.)
